This is an account of results in ChEMBL document CHEMBL5370593, “Discovery and In Vitro Characterization of SPL028: Deuterated N,N-Dimethyltryptamine” (ACS Med Chem Lett, 2023).

The nature of data set [1]: Ratio of drug concentration in human blood to plasma at 5 uM incubated for 30 mins by LC-MS/MS analysis. Format: ADME, cell-free. To be noted: whole blood.
The nature of data set [2]: Metabolic stability in human hepatocytes assessed as intrinsic clearance measured per million cells incubated upto 60 mins by LC-MS/MS analysis. Format: ADME, cell-based, Hepatocyte. The note with it: read-out: CLH.
A short description of data set [3]: Metabolic stability in human hepatocytes assessed as half life measured per million cells incubated upto 60 mins by LC-MS/MS analysis. Format: ADME, cell-based, Hepatocyte.
Data set [4] can be described thus: Plasma protein binding in human assessed as unbound fraction by rapid equilibrium dialysis analysis. Format: ADME, cell-free. (In general: In equilibrium dialysis free small molecules cross a membrane that holds back macromolecules.)

Each structure is given as a SMILES string.

Consider `CCN(CC)CCCC(C)Nc1ccnc2cc(Cl)ccc12` (configuration not stated) [CHLOROQUINE], for which the blood plasma ratio at 0.5 h, 5 µM in data set [1] is 4.93.

The half-life is how long it takes for the measured level to halve. On to `O=C(O)/C=C/C(=O)O.[2H]C([2H])([2H])N(CCc1c[nH]c2ccccc12)C([2H])([2H])[2H]`, for which the hepatocyte CLint in data set [2] stood at 15.2 µL/min/1e6 cells. In data set [3], the half-life was found to be 1.95 h.

One may read the fraction unbound as the share of the substance not bound to proteins or other matrix. On to `CNS(=O)(=O)Cc1ccc2[nH]cc(CCN(C)C)c2c1`, for which, in data set [4], the free fraction (fraction unbound) was 0.68.

For the compound `O=C(O)/C=C/C(=O)O.[2H]C([2H])([2H])N(C([2H])([2H])[2H])C([2H])([2H])Cc1c[nH]c2ccccc12`, in data set [2], the hepatocyte CLint stood at 9.3 µL/min/1e6 cells. The half-life in data set [3] is 3.45 h.

With `O=C(O)Cc1ccccc1Nc1c(Cl)cccc1Cl` [DICLOFENAC], the blood plasma ratio at 0.5 h, 5 µM in data set [1] came out at 0.63.
